# Laboratory results from patent US8846393B2, “Methods of improving stem cell homing and engraftment” (Gamida-Cell Ltd., priority 2005, dated 2014).
# Test system: VLA-4
# Assay: Shear flow experiments, VLA4-mediated binding to immobilized VCAM-1
# Assay type: cell-based, human
# Settings: CD34+ cells cultured with cytokines and nicotinamide
# Protocol: FIG. 3 is a graph showing the effect of nicotinamide on VLA4-mediated binding of cells to immobilized adhesion molecules under shear flow. CD34+ cells cultured as described in FIGS. 1 and 2 hereinabove were assayed for capture and arrest under shear stress, on immobilized VCAM-1 adsorbed as 10 μl dots on polystyrene. Cell settling events, and arrest were analyzed under perfusion (shear stress) by video photography. Assayed cell populations were cells before culture (non-cultured, open circles), cells cultured with cytokines, as described in FIG. 2 (cultured, closed circles), and cells cultured with cytokines and nicotinamide (cultured+NA, closed triangles). […]
# Soluble purified seven-domain human VCAM-1, sVCAM-1 was mixed in coating medium (PBS buffered with 20 mM sodium bicarbonate pH, 8.5) with a fixed amount of carrier (2 μg/ml HSA) and adsorbed as 10-μl spots on polystyrene plates (Becton Dickinson and Co, San Jose, Calif., USA) for 2 hours at 37° C., alone or with the indicated amounts of intact or heat-inactivated chemokines. […] VCAM-1 site densities were assessed using ^125I-labeled anti-VCAM-1 mAb, 4B9. […] The entire duration of cell perfusions were recorded on a videotape with a long integration LIS-700 CCD video camera (Applitech Rigicam, Israel) and a Time Lapse SVHS-Video recorder (AG-6730; Panasonic, Japan). […]
structure (smiles),measurement,value
NC(=O)c1cccnc1 [nicotinamide],percentage of initially settled cells resistant to removal by shear stress,significantly enhanced
